In patent US9779901B2, “High temperature material compositions for high temperature thermal cutoff devices” (Therm-O-Disc, Incorporated, priority 2008, dated 2017):
Where a name gives a salt, the structure may show the parent alone.

details: not given

Compound	Melting Point [°C]
Cc1nc2ccccc2c2ccc([N+](=O)[O-])cc12 [Example 23]	243 to 245
O=C1CCc2c1[nH]c1ccccc21 [Example 95]	252 to 252.5
c1cc2n[nH]nc2cn1 [Example 50]	246 to 247
O=C(O)c1cccc2c1-c1ccc([N+](=O)[O-])cc1C2=O [Example 163]	262 to 262.5
CC1(C)CC2(CC(C)(C)NC(=O)N2)NC(=O)N1 [Example 190]	265 to 268
Nc1ccc2c(c1)[nH]c1ccccc12 [Example 47]	245 to 247
CC1(C)CNC(=O)NC1 [Example 107]	255 to 257
NNc1nnc(Cc2ccncc2)c2ccccc12 [Example 149]	261 to 264
O=C(C=Cc1ccccc1)NCCCCNC(=O)C=Cc1ccccc1 [Example 74]	249 to 253
Nc1nnc(N)n1N [Example 158]	262 to 263
CCN(CCCCN)c1ccc2c(=O)[nH][nH]c(=O)c2c1 [Example 136]	259 to 260
Nc1nc2c([N+](=O)[O-])cccc2s1 [Example 105]	254
c1ccc(-c2nc(-c3ccccc3)c(-c3ccccc3)nc2-c2ccccc2)cc1 [Example 69]	248
Cn1c(=O)c2ccn(C)c2n(C)c1=O [Example 192]	265 to 266
Oc1ccc2cc3ccccc3cc2c1 [Example 103]	254
Cc1[nH]nc2c1N(c1ccccc1)C(=O)CC(=O)N2C [Example 159]	262
CC(=O)Oc1c(C)c(C)c2c(c1C)CCC(C)(CCN(C)C)O2 (stereo not drawn) (as salt: hydrochloride) [Example 172]	263 to 270
CC1NCCc2c1[nH]c1cc(O)ccc21 (stereo not drawn) (as salt: hydrochloride) [Example 100]	254 to 255
c1ccc2cc3c(ccc4cc5ccccc5cc43)cc2c1 [Example 123]	257
Cc1ccc2cc3cc(C)ccc3cc2c1 [Example 80]	250
O=c1nc(Cc2ccccc2)[nH]c2ccccc12 [Example 102]	254 to 256
CC(C)C(=O)OC1C[C@H]2CC[C@@H](C1)N2C (stereo partly drawn) [Example 14]	242
N#CC(CCN1CCC(C(=O)ON2C(=O)CCC2=O)(c2ccccc2)CC1)(c1ccccc1)c1ccccc1 (as salt: hydrochloride) [Example 17]	242 to 244
CN[C@H]1CC[C@@H](c2ccccc2)c2ccccc21 (as salt: hydrochloride) [Example 6]	241 to 242
Oc1cccc2nc3ccccc3cc12 [Example 84]	230
Nc1nc(N)nc(Cc2ccccc2)n1 [Example 67]	248

details: estimated melting point temperature ranges of candidate organic compounds (Table 2); some compounds have several values, partly in parentheses, because analytic techniques differ; cited from earlier work

Compound	Melting Point
O=C1C(=O)c2cccnc2-c2ncccc21 [Example 126]	258° ° C.
CC(=O)[C@H]1CC[C@H]2[C@@H]3CCc4cc(O)ccc4[C@H]3CC[C@]12C [Example 65]	247-249° ° C.
O=C1CN(N=C/C=C/c2ccc([N+](=O)[O-])o2)C(=O)N1 [Example 151]	261° ° C.
Cc1nc2ccccc2c2ccc([N+](=O)[O-])cc12 [Example 23]	243-245° ° C.
O=C1CCc2c1[nH]c1ccccc21 [Example 95]	252-252.5° ° C.
c1cc2n[nH]nc2cn1 [Example 50]	246-247° ° C.
O=C(O)c1cccc2c1-c1ccc([N+](=O)[O-])cc1C2=O [Example 163]	262-262.5° ° C.
CC1(C)CC2(CC(C)(C)NC(=O)N2)NC(=O)N1 [Example 190]	265-268° ° C.
Nc1ccc2c(c1)[nH]c1ccccc12 [Example 47]	245-247° ° C.
CC1(C)CNC(=O)NC1 [Example 107]	255-257° ° C.
NNc1nnc(Cc2ccncc2)c2ccccc12 [Example 149]	261-264° ° C.
O=C(C=Cc1ccccc1)NCCCCNC(=O)C=Cc1ccccc1 [Example 74]	249-253° ° C.
Cn1c(=O)c(=O)n(C)c2ccccc21 [Example 120]	256-258° ° C.
Cl.c1ccc(N=C(Nc2ccccc2)Nc2ccccc2)cc1 [Example 3]	241° ° C.
CCCOc1ccccc1-c1nc2nn[nH]c2c(=O)[nH]1 [Example 1]	241° ° C.
Nc1nnc(N)n1N [Example 158]	262-263° ° C.
CCN(CCCCN)c1ccc2c(=O)[nH][nH]c(=O)c2c1 [Example 136]	259-260° ° C.
Nc1nc2c([N+](=O)[O-])cccc2s1 [Example 105]	254° ° C.
c1ccc(-c2nc(-c3ccccc3)c(-c3ccccc3)nc2-c2ccccc2)cc1 [Example 69]	248° ° C.
Cn1c(=O)c2ccn(C)c2n(C)c1=O [Example 192]	265-266° ° C.
CN[C@H]1CC[C@@H](c2ccccc2)c2ccccc21 [Example 6]	241-242° ° C.
O=C1C=CC=CC1=C1Nc2ccccc2N1 [Example 15]	242° ° C.
Oc1ccc2cc3ccccc3cc2c1 [Example 103]	254° ° C.
Cc1[nH]nc2c1N(c1ccccc1)C(=O)CC(=O)N2C [Example 159]	262° ° C.
CCCC1C(=O)N2C(N(C)C)=Nc3ccc(C)cc3N2C1=O (stereo not drawn) [Example 62]	247-248° ° C.
CCCN(CCC)CCc1cccc2c1CC(=O)N2 [Example 2]	241-243° ° C.
COc1cccc2c1CCCC2N (stereo not drawn) [Example 76]	249-250° ° C.

Compound	Melting Point
CN1C(=O)C(=NNC(N)=S)c2ccccc21 [Example 43]	245° ° C.
COc1nc(C)nc(N)n1 [Example 135]	259-261° ° C.
CN(C)c1ncnc2nc[nH]c12 [Example 89]	251-253° ° C.
CCC(N)Cc1cc(OC)c(C)cc1OC (stereo not drawn) [Example 46]	245-246.5° ° C.
Oc1cc(-c2ccccc2)nc2ccccc12 [Example 114]	255-257° ° C.
Nc1nc(N)c2ccccc2n1 [Example 78]	250-252° ° C.
Cc1c(C)c2cccnc2c2ncccc12 [Example 195]	265-266° ° C.
COC(=O)c1cc2c(cn1)[nH]c1ccccc12 [Example 153]	261-262° ° C.
Cn1c(=S)c2c(ncn2C)n(C)c1=O [Example 52]	246-247° ° C.
N#Cc1cc(C#N)cc(C#N)c1 [Example 157]	261-263° ° C.
NC(=O)c1cccc2nc3ccccc3nc12 [Example 42]	245-246° ° C.
Nc1ccc(N=Nc2ccc(N)cc2)cc1 [Example 81]	250° ° C.
NC1=CC(=O)c2ncccc2C1=O [Example 131]	258-260° ° C.
CC(=O)Oc1c(C)c(C)c2c(c1C)CCC(C)(CCN(C)C)O2 (stereo not drawn) [Example 172]	263-270° ° C.
Cc1ccc2cc3ccc(C)cc3cc2c1 [Example 7]	241° ° C.
OCC(CO)(CO)CO [Example 144]	260° ° C.
O=C1C(=O)c2cccc3cccc1c23 [Example 27]	243-245° ° C.
Nc1nc2ccc([N+](=O)[O-])cc2s1 [Example 97]	253° ° C.
Cc1cc(C)c(C#N)c(=S)[nH]1 [Example 134]	259-260° ° C.
O=C(Nc1ccccc1)Nc1ccccc1 [Example 49]	246-248° ° C.
Cn1c(=O)c2[nH]cnc2n(C)c1=O [Example 179]	264° ° C.
NC1=CC(=O)c2cccnc2C1=O [Example 177]	263° ° C.
COc1ccc(-c2cc(=O)c3ccc(O)cc3o2)cc1 [Example 196]	265-267° ° C.
CC(C)c1nc2nc(N)nc(N)c2nc1C(C)C [Example 55]	246° ° C.
Nc1cc(N)nc(N)n1 [Example 70]	249-251° ° C.
Nc1ccc2nc(N)nc(N)c2c1 [Example 109]	255-258° ° C.
Nc1nnc(-c2ccccc2)o1 [Example 9]	241-243° ° C.

Compound	Melting Point
O=[N+]([O-])c1c2ccccc2c2ccc3cccc4ccc1c2c43 [Example 111]	255-256° ° C.
CN/C(=N\c1ccc(C2=NNC(=O)CC2C)cc1)NC#N (stereo not drawn) [Example 180]	264-265° ° C.
Nc1cccc2c1C(=O)c1ccccc1C2=O [Example 96]	253-254° ° C.
CC1(C)Oc2ccc(C#N)cc2[C@@H](N2CCCC2=O)[C@@H]1O [Example 18]	242-244° ° C.
c1ccc2c(C(c3c[nH]c4ccccc34)c3c[nH]c4ccccc34)c[nH]c2c1 [Example 38]	244-246° ° C.
COc1ccc2nc(S)[nH]c2c1 [Example 170]	263-264° ° C.
N#Cc1cncnc1N [Example 104]	254-256° ° C.
Oc1ccc2cccc(O)c2n1 [Example 146]	260° ° C.
Nc1ccc(S(=O)(=O)Nc2cnc3ccccc3n2)cc1 [Example 58]	247-248° ° C.
c1ccc(-c2c3ccccc3c(-c3ccccc3)c3ccccc23)cc1 [Example 54]	246-248° ° C.
C[C@]12CC[C@@H]3c4ccc(O)cc4C=C[C@H]3[C@@H]1CCC2=O [Example 186]	264-265° ° C.
Oc1nc2ccccc2nc1-c1ccccc1 [Example 64]	247° ° C.
O=c1ccc2[nH]cc(C3=CCNCC3)c2[nH]1 [Example 66]	248° ° C.
c1ccc(Nc2ccc(-c3ccc(Nc4ccccc4)cc3)cc2)cc1 [Example 32]	244-245° ° C.
O=C(Nc1ccccc1)C(=O)Nc1ccccc1 [Example 91]	252-254° ° C.
OC1C2CC3CC(C2)CC1C3 (stereo not drawn) [Example 140]	260-265° ° C.
Cc1cc2cc3ccccc3cc2cc1C [Example 93]	252° ° C.
Cc1ccc(NC(=O)Nc2ccc(C)cc2)cc1 [Example 167]	262-263° ° C.
c1cc(-c2sc(-c3ccncc3)c(-c3ccncc3)c2-c2ccncc2)ccn1 [Example 116]	256-258° ° C.
NC(=O)c1ccc(Oc2ccc(C(N)=O)cc2)cc1 [Example 193]	265° ° C.
O=C1C2C(c3ccccc3)NC(c3ccccc3)C1C(c1ccccc1)NC2c1ccccc1 (stereo not drawn) [Example 106]	255-256° ° C.
Cc1ccc2c(c1)[nH]c1ccccc12 [Example 133]	259° ° C.
[H]/N=C(\N/C(=N/[H])Nc1ccc(Cl)cc1)NC(C)C [Example 30]	244-245° ° C.
C[C@]12CCC(=O)C[C@H]1CC[C@@H]1[C@@H]2CC[C@]2(C)[C@@H](c3ccc(=O)oc3)CC[C@]12O [Example 16]	242-245° ° C.
N#CC(CCN1CCC(C(=O)ON2C(=O)CCC2=O)(c2ccccc2)CC1)(c1ccccc1)c1ccccc1 [Example 17]	242-244° ° C.
